Measured values published in ChEMBL document CHEMBL3880437, “Modulators of the prostacyclin (PGI2) receptor useful for the treatment of disorders related thereto” (2014).
pEC50, pIC50: −log10 of the molar value.

Tests used:
Platelet = assay: Inhibition of ADP-induced platelet aggregation in human platelet rich plasma pre-incubated for 1 min before ADP addition and measured 3 mins post ADP addition by aggregometry; assay type: functional
Prostacyclin receptor = Prostacyclin receptor (Homo sapiens, UniProt P43119); assay: Agonist activity at human recombinant prostacyclin receptor expressed in CHO-K1 cells assessed as induction of cAMP accumulation incubated for 1 hr by HTRF assay; assay type: functional, cell-based
Prostacyclin receptor, sequence (P43119 whole entry): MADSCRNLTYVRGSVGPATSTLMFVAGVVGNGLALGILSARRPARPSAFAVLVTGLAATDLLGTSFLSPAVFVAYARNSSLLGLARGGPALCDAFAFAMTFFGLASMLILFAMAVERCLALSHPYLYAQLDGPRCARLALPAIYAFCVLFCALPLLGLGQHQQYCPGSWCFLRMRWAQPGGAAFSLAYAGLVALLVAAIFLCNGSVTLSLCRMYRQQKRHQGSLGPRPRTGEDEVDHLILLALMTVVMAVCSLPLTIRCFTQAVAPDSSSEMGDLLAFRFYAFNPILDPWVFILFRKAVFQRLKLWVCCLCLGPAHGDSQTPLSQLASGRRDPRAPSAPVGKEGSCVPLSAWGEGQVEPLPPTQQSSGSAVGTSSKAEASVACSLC

Row | pIC50 (Platelet) | pEC50 (Prostacyclin receptor) | Structure (SMILES)
1 | 5.80 to 7.98 | 5.58 to 8.57 | Cc1cncc(N(C(=O)OC[C@H]2CC[C@H](COCC(=O)O)CC2)c2ccccc2)c1
2 | 5.80 to 7.98 | 5.58 to 8.57 | O=C(O)COC[C@H]1CC[C@H](COC(=O)N(c2ccc(O)cc2)c2ccc(Cl)cc2)CC1
3 | 5.80 to 7.98 | 5.58 to 8.57 | Cc1cc(C)cc(N(C(=O)OC[C@H]2CC[C@H](COCC(=O)O)CC2)c2cccc(F)c2)c1
4 | 5.80 to 7.98 | 5.58 to 8.57 | COc1ccc(N(C(=O)OC[C@H]2CC[C@H](COCC(=O)O)CC2)c2ccccc2)cc1
5 | 5.80 to 7.98 | – | O=C(O)COC[C@H]1CC[C@@H](COC(=O)N(c2ccccc2)c2ccc(F)cc2)CC1
6 | 5.80 to 7.98 | 5.58 to 8.57 | O=C(O)COC[C@H]1CC[C@H](CNC(=O)N(c2ccccc2)c2cc(F)cc(Cl)c2)CC1
7 | 5.80 to 7.98 | 5.58 to 8.57 | O=C(O)COC[C@H]1CC[C@H](COC(=O)N(c2ccccc2)c2ccc(C(F)(F)F)cn2)CC1
8 | 5.80 to 7.98 | 5.58 to 8.57 | Cc1cccc(N(C(=O)OC[C@H]2CC[C@H](COCC(=O)O)CC2)c2ccc(F)cc2)c1
9 | 5.80 to 7.98 | 5.58 to 8.57 | O=C(O)COC[C@H]1CC[C@H](COC(=O)N(c2cccc(F)c2)c2cccc(Cl)c2)CC1
10 | 5.80 to 7.98 | 5.58 to 8.57 | O=C(O)COC[C@H]1CC[C@H](COC(=O)N(c2ccccc2)c2cccnc2)CC1
11 | 5.80 to 7.98 | 5.58 to 8.57 | O=C(O)COC[C@H]1CC[C@H](COC(=O)N(c2ccccc2)c2ccc(F)c(F)c2)CC1
12 | 5.80 to 7.98 | 5.58 to 8.57 | CN(C[C@H]1CC[C@H](COCC(=O)O)CC1)C(=O)N(c1ccccc1)c1ccccc1
13 | 5.80 to 7.98 | 5.58 to 8.57 | CCCN(C(=O)OC[C@H]1CC[C@H](COCC(=O)O)CC1)C(c1ccccc1)c1ccccc1
14 | 5.80 to 7.98 | 5.58 to 8.57 | COc1ccc(N(C(=O)NC[C@H]2CC[C@H](COCC(=O)O)CC2)c2ccccc2)cc1
15 | 5.80 to 7.98 | 5.58 to 8.57 | O=C(O)COC[C@H]1CC[C@H](COC(=O)N(c2ccc(F)nc2)c2cccc(F)c2)CC1
16 | 5.80 to 7.98 | 5.58 to 8.57 | O=C(O)COC[C@H]1CC[C@H](COC(=O)N(c2ccc(F)cc2)c2cccnc2)CC1
17 | 5.80 to 7.98 | 5.58 to 8.57 | COc1ccc(N(C(=O)OC[C@H]2CC[C@@H](COCC(=O)O)CC2)c2ccccc2)cc1
18 | 5.80 to 7.98 | 5.58 to 8.57 | COc1cccc(N(C(=O)OC[C@H]2CC[C@H](COCC(=O)O)CC2)c2cccc(F)c2)c1
19 | 5.80 to 7.98 | – | O=C(O)COC[C@H]1CC[C@@H](CNC(=O)N(c2ccccc2)c2ccccc2)CC1
20 | 5.80 to 7.98 | – | O=C(O)CNC(=O)COC[C@H]1CC[C@H](COC(=O)N(c2ccccc2)c2ccc(Cl)cc2)CC1
21 | 5.80 to 7.98 | 5.58 to 8.57 | O=C(O)COC[C@H]1CC[C@H](COC(=O)N(c2ccccc2)c2ccccn2)CC1
22 | 5.80 to 7.98 | 5.58 to 8.57 | O=C(O)COC[C@H]1CC[C@H](CNC(=O)N(c2ccccc2)c2ccc(F)cc2)CC1
23 | 5.80 to 7.98 | 5.58 to 8.57 | O=C(O)COC[C@H]1CC[C@H](CNC(=O)N(c2ccccc2)c2cccc(C(F)(F)F)c2)CC1
24 | 5.80 to 7.98 | 5.58 to 8.57 | O=C(O)COC[C@H]1CC[C@H](CNC(=O)N(c2ccccc2)c2cc(F)cc(F)c2)CC1
25 | 5.80 to 7.98 | 5.58 to 8.57 | O=C(O)COC[C@H]1CC[C@H](CNC(=O)NC(c2ccccc2)c2ccccc2)CC1
26 | 5.80 to 7.98 | 5.58 to 8.57 | O=C(O)COC[C@H]1CC[C@H](CNC(=O)N(c2ccccc2)c2cccc(F)c2F)CC1

Row | pIC50 (Platelet) | pEC50 (Prostacyclin receptor) | Structure (SMILES)
27 | 5.80 to 7.98 | 5.58 to 8.57 | Cc1ccc(N(C(=O)OC[C@H]2CC[C@@H](COCC(=O)O)CC2)c2ccccc2)cc1
28 | 5.80 to 7.98 | 5.58 to 8.57 | O=C(O)COC[C@H]1CC[C@H](COC(=O)N(c2ccccc2)c2ccc(F)cn2)CC1
29 | 5.80 to 7.98 | 5.58 to 8.57 | Cc1ccc(N(C(=O)OC[C@H]2CC[C@H](COCC(=O)O)CC2)c2ccccc2)cc1F
30 | 5.80 to 7.98 | – | COc1ccc(N(C(=O)OC[C@H]2CC[C@H](COCC(=O)O)CC2)c2cccc(F)c2)cc1
31 | 5.80 to 7.98 | 5.58 to 8.57 | O=C(O)COC[C@H]1CC[C@H](COC(=O)N(c2ccccc2)c2ccc(F)nc2)CC1
32 | 5.80 to 7.98 | – | O=C(O)COC[C@H]1CC[C@@H](COC(=O)N(c2ccccc2)c2ccc(Cl)cc2)CC1
33 | 5.80 to 7.98 | 5.58 to 8.57 | COc1cccc(N(C(=O)OC[C@H]2CC[C@H](COCC(=O)O)CC2)c2ccccc2)c1
34 | 5.80 to 7.98 | 5.58 to 8.57 | O=C(O)COC[C@H]1CC[C@H](COC(=O)N(c2ccc(F)cc2)c2ccc(Cl)cc2)CC1
35 | 5.80 to 7.98 | 5.58 to 8.57 | CN(C(=O)OC[C@H]1CC[C@H](COCC(=O)O)CC1)C(c1ccccc1)c1ccccc1
36 | 5.80 to 7.98 | 5.58 to 8.57 | Cc1cccc(N(C(=O)NC[C@H]2CC[C@H](COCC(=O)O)CC2)c2cccc(C)c2)c1
37 | 5.80 to 7.98 | 5.58 to 8.57 | O=C(O)COC[C@H]1CC[C@H](COC(=O)Nc2ccccc2)CC1
38 | 5.80 to 7.98 | 5.58 to 8.57 | O=C(O)COC[C@H]1CC[C@H](COC(=O)N(c2ccccc2)c2cncc(F)c2)CC1
39 | 5.80 to 7.98 | 5.58 to 8.57 | Cc1ccc(N(C(=O)NC[C@H]2CC[C@H](COCC(=O)O)CC2)c2ccccc2)cc1
40 | 5.80 to 7.98 | 5.58 to 8.57 | CN(C[C@H]1CC[C@H](COCC(=O)O)CC1)C(=O)N(C)C(c1ccccc1)c1ccccc1
41 | 5.80 to 7.98 | – | O=C(O)COC[C@H]1CC[C@H](COC(=O)N(c2ccccc2)c2cccc(Cl)c2)CC1
42 | 5.80 to 7.98 | 5.58 to 8.57 | Cc1ccc(N(C(=O)OC[C@H]2CC[C@H](COCC(=O)O)CC2)c2cccc(F)c2)cc1F
43 | 5.80 to 7.98 | 5.58 to 8.57 | O=C(O)COC[C@H]1CC[C@H](CNC(=O)N(c2ccccc2)c2ccccc2F)CC1
44 | 5.80 to 7.98 | 5.58 to 8.57 | COc1cccc(N(C(=O)OC[C@H]2CC[C@@H](COCC(=O)O)CC2)c2ccccc2)c1
45 | 5.80 to 7.98 | 5.58 to 8.57 | O=C(O)COC[C@H]1CC[C@H](CNC(=O)N(c2ccccc2)c2ccc(F)c(F)c2)CC1
46 | 5.80 to 7.98 | 5.58 to 8.57 | Cc1cccc(N(C(=O)NC[C@H]2CC[C@H](COCC(=O)O)CC2)c2ccccc2)c1
47 | 5.80 to 7.98 | 5.58 to 8.57 | O=C(O)COC[C@H]1CC[C@H](COC(=O)N(c2ccccc2)c2ccc(Cl)cn2)CC1
48 | 5.80 to 7.98 | 5.58 to 8.57 | CCOc1ccc(N(C(=O)OC[C@H]2CC[C@H](COCC(=O)O)CC2)c2cccc(F)c2)cc1
49 | 5.80 to 7.98 | 5.58 to 8.57 | O=C(O)COC[C@H]1CC[C@H](COC(=O)N(c2ccccc2)c2ccc(F)c(Cl)c2)CC1
50 | 5.80 to 7.98 | 5.58 to 8.57 | O=C(O)COC[C@H]1CC[C@@H](COC(=O)N(c2ccccc2)c2ccccc2)CC1
51 | 5.80 to 7.98 | 5.58 to 8.57 | O=C(O)COC[C@H]1CC[C@H](CNC(=O)N(c2ccccc2)c2ccc(Cl)cc2)CC1
52 | 5.80 to 7.98 | 5.58 to 8.57 | O=C(O)COC[C@H]1CC[C@H](COC(=O)N(c2cccnc2)c2cccc(F)c2)CC1

Row | pIC50 (Platelet) | pEC50 (Prostacyclin receptor) | Structure (SMILES)
53 | 5.80 to 7.98 | 5.58 to 8.57 | O=C(O)COC[C@H]1CC[C@H](COC(=O)N(c2ccc(F)cc2)c2ccc(OC(F)(F)F)cc2)CC1
54 | 5.80 to 7.98 | 5.58 to 8.57 | O=C(O)COC[C@H]1CC[C@H](COC(=O)N(c2ccccc2)c2cccc(F)c2F)CC1
55 | 5.80 to 7.98 | – | O=C(O)COC[C@H]1CC[C@H](COC(=O)N(c2ccccc2)c2ccc(F)cc2)CC1
56 | 5.80 to 7.98 | 5.58 to 8.57 | O=C(O)COC[C@H]1CC[C@H](COC(=O)N(c2ccccc2)c2cnccn2)CC1
57 | 5.80 to 7.98 | 5.58 to 8.57 | O=C(O)COC[C@H]1CC[C@H](COC(=O)N(c2cccc(F)c2)c2ccc(F)c(F)c2)CC1
58 | 5.80 to 7.98 | 5.58 to 8.57 | O=C(O)COC[C@H]1CC[C@H](COC(=O)N(c2cccc(F)c2)c2ccc(F)c(Cl)c2)CC1
59 | 5.80 to 7.98 | 5.58 to 8.57 | Cc1cccc(N(C(=O)OC[C@H]2CC[C@H](COCC(=O)O)CC2)c2cccc(F)c2)c1
60 | 5.80 to 7.98 | 5.58 to 8.57 | O=C(O)COC[C@H]1CC[C@H](COC(=O)N(c2ccccc2)c2ccc(Cl)c(F)c2)CC1
61 | 5.80 to 7.98 | 5.58 to 8.57 | Cc1cccc(N(C(=O)OC[C@H]2CC[C@@H](COCC(=O)O)CC2)c2ccccc2)c1
62 | 5.80 to 7.98 | 5.58 to 8.57 | COc1ccccc1N(C(=O)OC[C@H]1CC[C@@H](COCC(=O)O)CC1)c1ccccc1
63 | 5.80 to 7.98 | 5.58 to 8.57 | O=C(O)COC[C@H]1CC[C@H](CNC(=O)N(c2ccccc2)c2ccc(Cl)c(F)c2)CC1
64 | 5.80 to 7.98 | 5.58 to 8.57 | O=C(O)COC[C@H]1CC[C@H](COC(=O)N(c2ccc(F)cc2)c2ccc(F)cc2)CC1
65 | 5.80 to 7.98 | 5.58 to 8.57 | COc1ccc(N(C(=O)NC[C@H]2CC[C@H](COCC(=O)O)CC2)c2ccccc2)c(C)c1
66 | 5.80 to 7.98 | 5.58 to 8.57 | O=C(O)COC[C@H]1CC[C@H](COC(=O)N(c2ccc(F)cc2)c2cccc(F)c2)CC1
67 | 5.80 to 7.98 | 5.58 to 8.57 | O=C(O)COC[C@H]1CC[C@H](COC(=O)N(c2ccccc2)c2cc(F)cc(Cl)c2)CC1
68 | 5.80 to 7.98 | 5.58 to 8.57 | O=C(O)COC[C@H]1CC[C@H](CNC(=O)N(c2ccccc2)c2cccc(F)c2)CC1
69 | 5.80 to 7.98 | – | O=C(O)COC[C@H]1CC[C@@H](COC(=O)N(c2ccccc2)c2cccc(F)c2)CC1
70 | 5.80 to 7.98 | 5.58 to 8.57 | COc1cncc(N(C(=O)OC[C@H]2CC[C@H](COCC(=O)O)CC2)c2ccccc2)c1
71 | 5.80 to 7.98 | 5.58 to 8.57 | O=C(O)COC[C@H]1CC[C@H](COC(=O)N(c2ccccc2)c2ccccc2)CC1
72 | 5.80 to 7.98 | 5.58 to 8.57 | Cc1cnc(N(C(=O)OC[C@H]2CC[C@H](COCC(=O)O)CC2)c2ccccc2)s1
73 | 5.80 to 7.98 | 5.58 to 8.57 | Cc1cccc(N(C(=O)OC[C@H]2CC[C@H](COCC(=O)O)CC2)c2ccccc2)c1
74 | 5.80 to 7.98 | – | O=C(O)COC[C@H]1CC[C@H](CNC(=O)N(c2ccccc2)c2cccc(Cl)c2)CC1
75 | 5.80 to 7.98 | 5.58 to 8.57 | O=C(O)COC[C@H]1CC[C@H](COC(=O)N(c2ccccc2)c2ccnc(F)c2)CC1
76 | 5.80 to 7.98 | – | Cc1ccc(N(C(=O)OC[C@H]2CC[C@H](COCC(=O)O)CC2)c2cccc(F)c2)s1
